Results from PubChem BioAssay (NCI).
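Values below derive from 48-hour exposures of cells grown in 96-well plates, with endpoints linearly interpolated between the two concentrations bracketing the appropriate inhibition level. At the GI50, growth is halved. TGI: total growth inhibition.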

Key:
Test in all cases: DTP human tumour cell line panel, 48 h
[1] = system: 786-0 renal
[2] = system: SK-MEL-2 melanoma
[3] = system: HL-60(TB) leukemia
[4] = system: LOX IMVI melanoma
[5] = system: A498 renal
[6] = system: SK-OV-3 ovarian
[7] = system: EKVX NSCLC
[8] = system: SNB-19 CNS
[9] = system: UACC-62 melanoma
[10] = system: ACHN renal
[11] = system: MOLT-4 leukemia
[12] = system: MDA-MB-231 breast
[13] = system: SF-295 CNS
[14] = system: NCI-H522 lung
[15] = system: HOP-92 NSCLC
[16] = system: SK-MEL-5 melanoma
[17] = system: PC-3 prostate
[18] = system: M14 melanoma
[19] = system: SF-268 CNS
[20] = system: SK-MEL-28 melanoma
[21] = system: U251 CNS
[22] = system: COLO 205 colon
[23] = system: SF-539 CNS
[24] = system: UO-31 renal
[25] = system: OVCAR-5 ovarian
[26] = system: RPMI-8226 leukemia
[27] = system: T-47D breast
[28] = system: SR leukemia
[29] = system: SN12C renal
[30] = system: HOP-62 NSCLC
[31] = system: TK-10 renal
[32] = system: IGROV1 ovarian
[33] = system: MALME-3M melanoma
[34] = system: RXF 393 renal
[35] = system: CCRF-CEM leukemia
[36] = system: OVCAR-8 ovarian
[37] = system: HCC-2998 colon
[38] = system: BT-549 breast
[39] = system: HT29 colon
[40] = system: SNB-75 CNS
[41] = system: MDA-MB-435
[42] = system: A549 NSCLC
[43] = system: KM12 colon
[44] = system: HCT-15 colon
[45] = system: SW-620 colon
[46] = system: DU-145 prostate
[47] = system: CAKI-1 renal
[48] = system: HS 578T breast
[49] = system: OVCAR-4 ovarian
[50] = system: MCF7 breast
[51] = system: NCI-H460 lung
[52] = system: HCT-116 colon
[53] = system: NCI/ADR-RES ovarian
[54] = system: K-562 leukemia
[55] = system: NCI-H226 lung
[56] = system: NCI-H23 lung
[57] = system: OVCAR-3 ovarian

Compound: C[C@@H]1CN2[C@H]3[C@@H]1CC[C@]31CCC(=O)O[C@]1(C)[C@H]1CC[C@H]3CCC=C3[C@@H]12
- GI50 [1]: > 30 µM
- TGI [1]: > 30 µM
- GI50 [2]: > 30 µM
- TGI [2]: > 30 µM
- GI50 [3]: > 30 µM
- TGI [3]: > 30 µM
- GI50 [4]: > 30 µM
- TGI [4]: > 30 µM
- GI50 [5]: > 30 µM
- TGI [5]: > 30 µM
- GI50 [6]: > 30 µM
- TGI [6]: > 30 µM
- GI50 [7]: > 30 µM
- TGI [7]: > 30 µM
- GI50 [8]: > 30 µM
- TGI [8]: > 30 µM
- GI50 [9]: > 30 µM
- TGI [9]: > 30 µM
- GI50 [10]: > 30 µM
- TGI [10]: > 30 µM
- GI50 [11]: > 30 µM
- TGI [11]: > 30 µM
- GI50 [12]: > 30 µM
- TGI [12]: > 30 µM
- GI50 [13]: > 30 µM
- TGI [13]: > 30 µM
- GI50 [14]: > 30 µM
- TGI [14]: > 30 µM
- GI50 [15]: > 30 µM
- TGI [15]: > 30 µM
- GI50 [16]: > 30 µM
- TGI [16]: > 30 µM
- GI50 [17]: > 30 µM
- TGI [17]: > 30 µM
- GI50 [18]: > 30 µM
- TGI [18]: > 30 µM
- GI50 [19]: > 30 µM
- TGI [19]: > 30 µM
- GI50 [20]: > 30 µM
- TGI [20]: > 30 µM
- GI50 [21]: > 30 µM
- TGI [21]: > 30 µM
- GI50 [22]: > 30 µM
- TGI [22]: > 30 µM
- GI50 [23]: > 30 µM
- TGI [23]: > 30 µM
- GI50 [24]: > 30 µM
- TGI [24]: > 30 µM
- GI50 [25]: > 30 µM
- TGI [25]: > 30 µM
- GI50 [26]: > 30 µM
- TGI [26]: > 30 µM
- GI50 [27]: > 30 µM
- TGI [27]: > 30 µM
- GI50 [28]: > 30 µM
- TGI [28]: > 30 µM
- GI50 [29]: > 30 µM
- TGI [29]: > 30 µM
- GI50 [30]: > 30 µM
- TGI [30]: > 30 µM
- GI50 [31]: > 30 µM
- TGI [31]: > 30 µM
- GI50 [32]: > 30 µM
- TGI [32]: > 30 µM
- GI50 [33]: > 30 µM
- TGI [33]: > 30 µM
- GI50 [34]: > 30 µM
- TGI [34]: > 30 µM
- GI50 [35]: > 30 µM
- TGI [35]: > 30 µM
- GI50 [36]: > 30 µM
- TGI [36]: > 30 µM
- GI50 [37]: > 30 µM
- TGI [37]: > 30 µM
- GI50 [38]: > 30 µM
- TGI [38]: > 30 µM
- GI50 [39]: > 30 µM
- TGI [39]: > 30 µM
- GI50 [40]: > 30 µM
- TGI [40]: > 30 µM
- GI50 [41]: > 30 µM
- TGI [41]: > 30 µM
- GI50 [42]: > 30 µM
- TGI [42]: > 30 µM
- GI50 [43]: > 30 µM
- TGI [43]: > 30 µM
- GI50 [44]: > 30 µM
- TGI [44]: > 30 µM
- GI50 [45]: > 30 µM
- TGI [45]: > 30 µM
- GI50 [46]: > 30 µM
- TGI [46]: > 30 µM
- GI50 [47]: > 30 µM
- TGI [47]: > 30 µM
- GI50 [48]: > 30 µM
- TGI [48]: > 30 µM
- GI50 [49]: > 30 µM
- TGI [49]: > 30 µM
- GI50 [50]: > 30 µM
- TGI [50]: > 30 µM
- GI50 [51]: > 30 µM
- TGI [51]: > 30 µM
- GI50 [52]: > 30 µM
- TGI [52]: > 30 µM
- GI50 [53]: > 30 µM
- TGI [53]: > 30 µM
- GI50 [54]: > 30 µM
- TGI [54]: > 30 µM
- GI50 [55]: > 30 µM
- TGI [55]: > 30 µM
- GI50 [56]: > 30 µM
- TGI [56]: > 30 µM
- GI50 [57]: > 30 µM
- TGI [57]: > 30 µM
